The source of these data is PMC4167698, “Fatty Acid Esters of Phloridzin Induce Apoptosis of Human Liver Cancer Cells through Altered Gene Expression” (PLoS ONE, 2014).

Assay [1] has as its system caspase 3 activity of HepG2 cells. The assay can be described thus: Caspase-3 colorimetric activity assay. To be noted: HepG2, 100 µM, 24 h, compared to DMSO control. The format is cell-based, human. The procedure:
The activity of caspase 3 enzyme was measured using caspase 3 colorimetric assay kit purchased from Sigma-Aldrich. […] Cells were lysed and the protein content of cell lysate was quantified by the BCA protein assay (Thermo Fisher Scientific Inc., Ottawa, ON, Canada). Caspase-3 activity was measured in the 200 µg of cell lysate using the caspase-specific peptide substrate, DEVD (Asp-Glu-Val-Asp), conjugated to reporter p-nitroanaline (ρ-NA) molecules.

Assay [2] concerns HepG2 cells. As to the kind of experiment: MTS cell proliferation assay, HepG2. The format is cell-based, human. Conditions: Homo sapiens, MTS. The essentials:
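MTS read-out (OD490, 3 h with PMS) after 3, 6, 12, 18 or 24 h exposure to 0.1–100 µM compound; HepG2 and MDA-MB-231 at 5×10^3 cells/well, human and rat hepatocytes at 1×10^4 cells/well, triplicate.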
Background: Tetrazolium dyes change colour on reduction, which living cells bring about.

Assay [3] relates to HepG2 cells. As to the kind of experiment: DNA fragmentation (apoptotic DNA ladder). The assay is classed as cell-based, human. To be noted: HepG2, 100 µM, 24 h, agarose gel. The method, then: HepG2 (1×10^5) cells were seeded in 24-well culture plates and were allowed to adhere overnight. […] The plates were re-incubated for another 24 h. DNA fragmentation was detected using ApoTarget Quick Apoptotic DNA Ladder Detection Kit (Invitrogen, Burlington, ON, Canada) according to the manufacturer’s protocol. The principle involves detecting the internucleosomal DNA fragments formed during apoptosis. Briefly, floating dead cells and trypsinized adherent cells were collected and centrifuged at 1,000 rpm for 10 min. After washing with diluted phosphate buffered saline, the cells were lysed with 35 µL TE lysis buffer (a kit component). To the lysate, 5 µL of Enzyme A (a kit component) was added and incubated at 37°C for 10 min. Afterwards, 5 µL of Enzyme B (a kit component) was added, gently mixed and incubated at 50°C for 30 min. The DNA was precipitated with the ammonium acetate and absolute ethanol at −20°C. After centrifugation (10 min at 12,000 rpm) and air drying, the DNA pellet was dissolved in 30 µL of DNA suspension buffer. For detecting the DNA ladder, the extracted DNA samples were run on a 1.2% agarose gel containing 0.5 µg/mL gel red in Tris-Borate-EDTA (TBE) buffer. After electrophoresis, the gel image was captured using Gel Doc 100 system (Bio-Rad, Mississauga, ON, Canada).

Assay [4] concerns THP-1 cells. As to the kind of experiment: MTS cell proliferation assay, THP-1. The assay is classed as cell-based, human. To be noted: Homo sapiens, MTS. The procedure: Cell viability was determined by using the MTS assay. In brief, HepG2 cells (5×10^3 cells/100 µL/well), MDA-MB-231 (5×10^3 cells/100 µL/well), THP-1 (25×10^3/100 µL/well), normal human and rat hepatocytes (1×10^4 cells/100 µL/well) were plated in triplicate, in a 96 well sterile flat bottom tissue culture plates. […] Thereby, cells were exposed to various concentrations (0.1, 1, 10, 25, 50, 75, 100 µM) of each treatment. Controls consist of cells with media containing DMSO (<0.5%), test blank wells contained the test compound in media with no cells and blank wells contained media with no cells. After additional 3, 6, 12, 18 or 24 h, 20 µL of the MTS reagent in combination with the electron coupling agent, phenazine methosulfate were added to the wells and cells were incubated in a humidified incubator for 3 h. Absorbance at 490 nm (OD490) was measured by using a Flurostar Optima microplate reader (BMG Labtech, Cary, NC, USA) to obtain the number of viable cells relative to the control population. Percentage of viability of the test compound treated cells are expressed as percentage compared to control (<0.5% DMSO). […] The selective index (SI) of the fatty acid esters of phloridzin is defined as the ratio of cytotoxicity (EC50 values) on normal HP-F cells to solid cancer HepG2, MDA-MB-231 cells (SI = EC50 on HP-F cells/EC50 on solid cancer cells). Samples with SI values greater than three were considered to have high selectivity towards cancer cells.

For assay [5], the target named is T1, human DNA topo IIα (Homo sapiens, UniProt P11388).
T1 construct: purchased TopoGEN, Inc., Columbus, OH, USA
As to the kind of experiment: Topoisomerase IIα catalytic activity (pHOT1 DNA relaxation). The format is biochemical. Conditions: 100 µM, 4 units enzyme, 37°C 30 min. The method, then:
The topo IIα catalytic activity was monitored via electrophoresis using topoisomerase II drug screening kit (TopoGEN, Inc., Columbus, OH, USA). Briefly, 20 µL of reaction mixtures contained 0.5 M Tris-HCl, pH 8.0, 1.5 M NaCl, 100 mM MgCl2, 20 mM ATP, 300 µg BSA/mL and 5 mM dithiothreitol. Supercoiled DNA (pHOT1 DNA), supercoiled provided in the kit was determined to be ideal for this assay because it is small and easy to handle and has a large number of topo IIα recognition elements. […] The reaction was terminated by adding 2 µL of 10% sodium dodecyl sulfate (SDS) followed by digestion with 2 µL of proteinase K (50 µg/mL) at 37°C for 15 min to degrade enzyme. After adding 2 µL of loading buffer (0.25% bromophenol blue and 50% glycerol) was added to the mixture, samples were loaded onto 1% agarose gel. Electrophoresis was conducted at 66 V (2 V/cm) for 5 h in TBE buffer using Biorad Electrophoretic Gel System (Bio-Rad, Hercules, CA, USA). Supercoiled DNA (pHOT1 DNA) and relaxed DNA were included in the electrophoresis run as markers for DNA topology. Gels were then stained in 0.5 µg/mL gel red in TBE for 30 min and destained for 15 min in distilled water prior to digital image acquisition using Gel Doc 100 system (Bio-Rad, Hercules, CA, USA).
One unit of topoisomerase II activity was defined as the minimum amount of enzyme required to achieve complete relaxation of […] superhelical pHOT1 DNA in 30 min at 37°C. […] The percent of inhibition was calculated by the following formula: [drawing 1] Where Scontrol is the percent of supercoiled DNA in the control lane (without enzyme and test compounds), S0 is the percent of supercoiled DNA in the lane without test compounds and S is the percent of supercoiled DNA in the lane with test compounds and enzyme.

Assay [6] deals with HepG2 cells. As to the kind of experiment: Annexin V/7-AAD apoptosis/necrosis fluorescence microscopy. To be noted: HepG2, 100 µM, 24 h. The format is cell-based, human. The method, then:
HepG2 cells were seeded into Nunc Lab-Tek two chamber slide (Sigma-Aldrich Canada) at a density of 1×10^6 cells/chamber. […] The slides were washed with diluted phosphate buffered saline. After removing the chamber, each slide was added with 50 µL of Dual Detection Reagent containing apoptosis detection reagent (Annexin V-EnzoGold) and necrosis detection reagent (7-AAD) in 1X binding buffer. The samples were incubated at room temperature for 15 min in the dark. After staining, the cells were washed with binding buffer and covered with a glass coverslip. The stained cells were observed under a fluorescence Zeiss Axiovert 200 m inverted microscope (Carl Zeiss, Toronto, ON, Canada) at magnification of ×40 with a filter set for Annexin V-EnzoGold (Ex/Em: 550/570 nm) and 7-AAD (Ex/Em: 546/647 nm).

T1 sequence (P11388 whole entry): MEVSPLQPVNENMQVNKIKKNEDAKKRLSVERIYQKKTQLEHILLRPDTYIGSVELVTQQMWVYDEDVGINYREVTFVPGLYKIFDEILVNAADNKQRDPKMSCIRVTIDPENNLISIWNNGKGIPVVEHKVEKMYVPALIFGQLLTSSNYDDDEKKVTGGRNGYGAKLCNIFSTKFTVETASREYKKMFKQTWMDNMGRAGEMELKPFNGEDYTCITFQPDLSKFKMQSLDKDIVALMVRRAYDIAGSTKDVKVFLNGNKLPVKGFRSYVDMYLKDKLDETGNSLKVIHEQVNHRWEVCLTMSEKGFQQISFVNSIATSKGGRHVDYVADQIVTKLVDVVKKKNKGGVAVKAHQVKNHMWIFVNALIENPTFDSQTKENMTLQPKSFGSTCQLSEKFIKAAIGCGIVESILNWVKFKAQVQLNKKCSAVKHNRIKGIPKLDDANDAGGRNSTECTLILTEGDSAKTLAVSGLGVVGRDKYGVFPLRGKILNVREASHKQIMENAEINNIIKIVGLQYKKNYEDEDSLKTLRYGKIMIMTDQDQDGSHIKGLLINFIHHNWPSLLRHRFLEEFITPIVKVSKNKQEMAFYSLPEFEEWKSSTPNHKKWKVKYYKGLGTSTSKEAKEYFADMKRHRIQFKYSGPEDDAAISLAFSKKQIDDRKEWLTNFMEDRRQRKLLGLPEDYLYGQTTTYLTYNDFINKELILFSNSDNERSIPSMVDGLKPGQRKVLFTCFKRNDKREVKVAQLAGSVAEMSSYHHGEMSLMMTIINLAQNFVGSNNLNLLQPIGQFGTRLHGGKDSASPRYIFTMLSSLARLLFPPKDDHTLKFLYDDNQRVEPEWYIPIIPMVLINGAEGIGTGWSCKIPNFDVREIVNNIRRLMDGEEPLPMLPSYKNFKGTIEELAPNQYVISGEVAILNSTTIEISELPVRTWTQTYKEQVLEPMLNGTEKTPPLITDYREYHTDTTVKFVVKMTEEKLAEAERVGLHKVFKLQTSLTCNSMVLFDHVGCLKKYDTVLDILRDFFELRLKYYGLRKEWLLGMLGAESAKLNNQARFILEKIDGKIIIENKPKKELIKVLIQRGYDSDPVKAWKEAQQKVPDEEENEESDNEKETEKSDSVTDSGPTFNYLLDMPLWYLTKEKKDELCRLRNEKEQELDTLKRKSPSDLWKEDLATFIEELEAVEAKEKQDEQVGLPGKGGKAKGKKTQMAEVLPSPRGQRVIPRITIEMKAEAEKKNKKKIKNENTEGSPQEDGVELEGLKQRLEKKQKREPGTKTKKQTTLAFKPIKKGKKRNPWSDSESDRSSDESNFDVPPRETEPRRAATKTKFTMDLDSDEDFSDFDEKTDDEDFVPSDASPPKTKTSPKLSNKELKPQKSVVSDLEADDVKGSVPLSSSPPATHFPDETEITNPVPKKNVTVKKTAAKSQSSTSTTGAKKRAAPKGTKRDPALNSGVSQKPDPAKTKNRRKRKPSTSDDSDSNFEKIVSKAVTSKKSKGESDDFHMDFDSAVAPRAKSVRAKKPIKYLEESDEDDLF

Broadly, the EC50 is the concentration needed to bring the measured effect to its halfway point. With `O=C(CCc1ccc(O)cc1)c1c(O)cc(O)cc1O` [Phloretin], in assay [1], the “caspase 3 activity” value was “enhanced caspase 3 activity but significantly (P<0.001) lower than fatty acid esters of phloridzin or the drug”. In addition, the EC50 in assay [2] (HepG2, 3 h) is over 100 µM; in assay [2] (HepG2, 6 h), over 100 µM; in assay [2] (HepG2, 12 h) it was over 100 µM; in assay [2] (HepG2, 18 h) it was over 100 µM; in assay [2] (HepG2, 24 h), 97.2 µM; in assay [4] (THP-1, 3 h) it was 73.5 ± 5.2 µM. Besides, the EC50 in assay [4] (THP-1, 6 h) was found to be 64.1 ± 5.4 µM; in assay [4] (THP-1, 12 h) it was 60.1 ± 4.2 µM; in assay [4] (THP-1, 18 h) it was 56.9 ± 3 µM; in assay [4] (THP-1, 24 h), 39.6 ± 1.7 µM. Further, in assay [3], the “internucleosomal DNA fragmentation” value is on record as “only intact genomic DNA”. Further, in assay [5], the “catalytic activity of human DNA topo IIα (pHOT DNA relaxation)” value is “inhibited catalytic activity”. Also, the “apoptosis/necrosis by Annexin V/7-AAD staining” value in assay [6] was “less apoptotic death of cells”.
As for `O=C(CCc1ccc(O)cc1)c1c(O)cc(O)cc1O[C@@H]1O[C@H](CO)[C@@H](O)[C@H](O)[C@H]1O` [Phloridzin, phloretin 2′-O-glucoside], the “caspase 3 activity” value in assay [1] is “enhanced caspase 3 activity but significantly (P<0.001) lower than fatty acid esters of phloridzin or the drug”. Further, the EC50 was over 100 µM in assay [2] (HepG2, 3 h); over 100 µM in assay [2] (HepG2, 6 h); over 100 µM in assay [2] (HepG2, 12 h); over 100 µM in assay [2] (HepG2, 18 h); over 100 µM in assay [2] (HepG2, 24 h); over 100 µM in assay [4] (THP-1, 3 h). For the same compound, the EC50 in assay [4] (THP-1, 6 h) was over 100 µM; in assay [4] (THP-1, 12 h), over 100 µM; in assay [4] (THP-1, 18 h), over 100 µM; in assay [4] (THP-1, 24 h), over 100 µM. Further, in assay [3], the “internucleosomal DNA fragmentation” value is given as “only intact genomic DNA”. For the same compound, the “catalytic activity of human DNA topo IIα (pHOT DNA relaxation)” value in assay [5] is listed as “inhibited catalytic activity”. Moreover, the “apoptosis/necrosis by Annexin V/7-AAD staining” value in assay [6] is “less apoptotic death of cells”.
